Measurements as given in patent US20260007133A1, “HERBICIDAL COMPOSITION COMPRISING AZINE COMPOUNDS” (BASF SE, priority 2022, published 2026).

Key:
Assay type in all cases: in vivo
Abutilon theophrasti [1] = experiment: Greenhouse post-emergence (POST) herbicidal test on ABUTH; conditions: POST; for % activity: ABUTH, 18 DAT
Method in brief: (§1)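 For this test, compounds formulated as a 5% by weight emulsion concentrate were diluted into spray liquor and applied post-emergence. Species were kept at 10-25° C or 20-35° C and injury was scored at 20 DAT on a 0–100 scale.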

Amaranthus retroflexus [2] = experiment: Greenhouse pre-emergence (PRE) herbicidal test on AMARE; conditions: PRE; for % activity: AMARE, 18 DAT
Protocol: (§2) The culture containers used were plastic pots containing loamy sand with approximately 3.0% of humus as substrate. The seeds of the test plants were sown separately for each species.
The containers were irrigated gently to promote germination and growth and subsequently covered with transparent plastic hoods until the plants had rooted.
(§3) Depending on the species, the plants were kept at 10-25° C. and 20-35° C., respectively.
(§4) The test period extended over 2 to 4 weeks. During this time, the plants were tended and their response to the individual treatments was evaluated.
(§5) Evaluation was carried out using a scale from 0 to 100. 100 means no emergence of the plants, or complete destruction of at least the above-ground parts, and 0 means no damage or normal course of growth. A good herbicidal activity is given at values of at least 70, and very good herbicidal activity is given at values of at least 85.
As indicated application was either post emergent (POST) at the respective growth stage (GS) of the weed (BBCH code), or pre-emergent (PRE). […]

Echinochloa crus-galli [3] = experiment: Greenhouse post-emergence (POST) herbicidal test on ECHCG; conditions: POST, ECHCG, 18 DAT
Method in brief: as §1

Digitaria sanguinalis = experiment: Greenhouse post-emergence (POST) herbicidal test on DIGSA; conditions: POST, DIGSA, 18 DAT
Method in brief: as §1

Euphorbia heterophylla [4] = experiment: Greenhouse post-emergence (POST) herbicidal test on EPHHL; conditions: POST
Method in brief: as §1

Abutilon theophrasti [5] = experiment: Greenhouse pre-emergence (PRE) herbicidal test on ABUTH; conditions: PRE; for % activity: ABUTH, 18 DAT
Method in brief: (§6)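 Pre-emergence greenhouse assay: sown loamy-sand pots (humus approx. 3.0%) were kept under transparent hoods until rooting, then grown at species-appropriate 10-25° C or 20-35° C. Response ratings of 0 (no damage) to 100 (no plants emerged) were recorded 20 days after application.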

Euphorbia heterophylla [6] = experiment: Greenhouse pre-emergence (PRE) herbicidal test on EPHHL; conditions: PRE; for % activity: EPHHL, 18 DAT
Method in brief: as §6

Alopecurus myosuroides = experiment: Greenhouse pre-emergence (PRE) herbicidal test on ALOMY; conditions: PRE; for % activity: ALOMY, 18 DAT
Method in brief: as §6

Setaria viridis = experiment: Greenhouse pre-emergence (PRE) herbicidal test on SETVI; conditions: PRE
Method in brief: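 Herbicidal effect is scored from 0 (no damage) to 100 (no emergence or above-ground parts destroyed), 20 days after treatment. Application is pre-emergent onto sown pots, with components given as a 5% by weight emulsion concentrate in the spray liquor.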

Echinochloa crus-galli [7] = experiment: Greenhouse pre-emergence (PRE) herbicidal test on ECHCG; conditions: PRE, ECHCG, 18 DAT
Commelina benghalensis = experiment: Greenhouse pre-emergence (PRE) herbicidal test on COMBE; conditions: PRE; for % activity: COMBE, 18 DAT
Method in brief: as §6

Lolium multiflorum = experiment: Greenhouse pre-emergence (PRE) herbicidal test on LOLMU; conditions: PRE; for % activity: LOLMU, 18 DAT
Method in brief: as §6

Geranium pusillum = experiment: Greenhouse post-emergence (POST) herbicidal test on GERPU; conditions: POST; for % activity: GERPU, 18 DAT
Method in brief: as §1

Amaranthus retroflexus [8] = experiment: Greenhouse post-emergence (POST) herbicidal test on AMARE; conditions: POST
Method in brief: as §1

Ipomoea hederacea = experiment: Greenhouse post-emergence (POST) herbicidal test on IPOHE; conditions: Ipomoea hederacea, post-emergence, 480 h, POST, 20 DAT
Protocol: as §2
For the post-emergence treatment, the test plants were grown to a plant height of from 3 to 15 cm, depending on the plant habit, and only then treated with the active compounds which had been suspended or emulsified in water. To this end, the test plants were either sown directly, and grown in the same containers, or they were first grown separately as seedlings and transplanted into the test containers a few days prior to treatment.
as §3, §4, §5
If not stated differently, the respective components A and B, and if appropriate, C were formulated as a 5% by weight strength emulsion concentrate and, with addition of the amount of solvent system, introduced into the spray liquor used for applying the active compound.
As indicated application was either post emergent (POST) at the respective growth stage (GS) of the weed (BBCH code), or pre-emergent (PRE).
Assessment was 20 days after treatment (DAT).

Ambrosia artemisiifolia = experiment: Greenhouse pre-emergence (PRE) herbicidal test on AMBEL; conditions: Ambrosia artemisiifolia, pre-emergence, 480 h, PRE, 20 DAT

Cc1ccc2c(c1)[C@H](Nc1nc(N)nc(C(C)F)n1)[C@@H](C)C2 (stereo partly shown) [Indaziflam, indaziflam]
% activity (Abutilon theophrasti [1]; Indaziflam solo 2 gai/ha): 15% | % activity (Abutilon theophrasti [1]; Indaziflam solo 4 gai/ha): 30% | % activity (Amaranthus retroflexus [2]; Indaziflam solo 1 gai/ha): 10% | % activity (Amaranthus retroflexus [2]; Indaziflam solo 4 gai/ha): 50% | % activity (Echinochloa crus-galli [3]; Indaziflam solo 1 gai/ha): 0% | % activity (Echinochloa crus-galli [3]; Indaziflam solo 2 gai/ha): 0% | % activity (Echinochloa crus-galli [3]; Indaziflam solo 4 gai/ha): 20% | % activity (Echinochloa crus-galli [3]; Indaziflam solo 8 gai/ha): 60% | % activity (Digitaria sanguinalis; Indaziflam solo 1 gai/ha): 0% | % activity (Digitaria sanguinalis; Indaziflam solo 2 gai/ha): 5% | % activity (Digitaria sanguinalis; Indaziflam solo 8 gai/ha): 20% | % activity (Euphorbia heterophylla [4]; EPHHL, Indaziflam solo 4 gai/ha, 18 DAT): 40% | % activity (Abutilon theophrasti [5]; Indaziflam solo 1 gai/ha): 0% | % activity (Abutilon theophrasti [5]; Indaziflam solo 4 gai/ha): 25% | % activity (Euphorbia heterophylla [6]; Indaziflam solo 1 gai/ha): 10% | % activity (Euphorbia heterophylla [6]; Indaziflam solo 4 gai/ha): 5% | % activity (Alopecurus myosuroides; Indaziflam solo 1 gai/ha): 10% | % activity (Alopecurus myosuroides; Indaziflam solo 4 gai/ha): 75% | % activity (Setaria viridis; SETVI, Indaziflam solo 1 gai/ha, 18 DAT): 40% | % activity (Echinochloa crus-galli [7]; Indaziflam solo 1 gai/ha): 30% | % activity (Echinochloa crus-galli [7]; Indaziflam solo 4 gai/ha): 85% | % activity (Echinochloa crus-galli [7]; Indaziflam solo 8 gai/ha): 80% | % activity (Commelina benghalensis; Indaziflam solo 1 gai/ha): 20% | % activity (Commelina benghalensis; Indaziflam solo 2 gai/ha): 10% | % activity (Commelina benghalensis; Indaziflam solo 8 gai/ha): 40% | % activity (Lolium multiflorum; Indaziflam solo 1 gai/ha): 10% | % activity (Lolium multiflorum; Indaziflam solo 2 gai/ha): 10% | % activity (Lolium multiflorum; Indaziflam solo 4 gai/ha): 40% | % activity (Geranium pusillum; Indaziflam solo 4 gai/ha): 50% | % activity (Geranium pusillum; Indaziflam solo 8 gai/ha): 50% | % activity (Amaranthus retroflexus [8]; AMARE, Indaziflam solo 1 gai/ha, 18 DAT): 65%

CCNc1nc(Cl)nc(NC(C)(C)C)n1 [Terbutylazine]
pest or weed control at 62.5 g/ha (Abutilon theophrasti [1]; Abutilon theophrasti, post-emergence, 480 h, 62.5 gai/ha, 20 DAT): 0% | pest or weed control at 62.5 g/ha (Amaranthus retroflexus [2]; Amaranthus retroflexus, pre-emergence, 480 h, 62.5 gai/ha, 20 DAT): 0% | pest or weed control at 15.6 g/ha (Abutilon theophrasti [5]; Abutilon theophrasti, pre-emergence, 480 h, 15.6 gai/ha, 20 DAT): 0% | pest or weed control at 62.5 g/ha (Abutilon theophrasti [5]; Abutilon theophrasti, pre-emergence, 480 h, 62.5 gai/ha, 20 DAT): 0% | pest or weed control at 62.5 g/ha (Euphorbia heterophylla [6]; Euphorbia heterophylla, pre-emergence, 480 h, 62.5 gai/ha, 20 DAT): 0% | pest or weed control at 15.6 g/ha (Alopecurus myosuroides; Alopecurus myosuroides, pre-emergence, 480 h, 15.6 gai/ha, 20 DAT): 0% | pest or weed control at 62.5 g/ha (Alopecurus myosuroides; Alopecurus myosuroides, pre-emergence, 480 h, 62.5 gai/ha, 20 DAT): 0% | pest or weed control at 15.6 g/ha (Ipomoea hederacea; 15.6 gai/ha): 0% | pest or weed control at 15.6 g/ha (Ambrosia artemisiifolia; 15.6 gai/ha): 0% | pest or weed control at 15.6 g/ha (Commelina benghalensis; Commelina benghalensis, pre-emergence, 480 h, 15.6 gai/ha, 20 DAT): 0% | pest or weed control at 62.5 g/ha (Commelina benghalensis; Commelina benghalensis, pre-emergence, 480 h, 62.5 gai/ha, 20 DAT): 0% | pest or weed control at 15.6 g/ha (Lolium multiflorum; Lolium multiflorum, pre-emergence, 480 h, 15.6 gai/ha, 20 DAT): 0% | pest or weed control at 62.5 g/ha (Amaranthus retroflexus [8]; Amaranthus retroflexus, post-emergence, 480 h, 62.5 gai/ha, 20 DAT): 60%

CC(C)N(C(=O)SCC(Cl)=C(Cl)Cl)C(C)C [Tri-Allate, Tri-allate]
pest or weed control at 1200 g/ha (Abutilon theophrasti [1]; Abutilon theophrasti, post-emergence, 480 h, 1200 gai/ha, 20 DAT): 0% | pest or weed control at 600 g/ha (Amaranthus retroflexus [2]; Amaranthus retroflexus, pre-emergence, 480 h, 600 gai/ha, 20 DAT): 10% | pest or weed control at 1200 g/ha (Amaranthus retroflexus [2]; Amaranthus retroflexus, pre-emergence, 480 h, 1200 gai/ha, 20 DAT): 10% | pest or weed control at 600 g/ha (Euphorbia heterophylla [4]; Euphorbia heterophylla, post-emergence, 480 h, 600 gai/ha, 20 DAT): 10% | pest or weed control at 1200 g/ha (Euphorbia heterophylla [4]; Euphorbia heterophylla, post-emergence, 480 h, 1200 gai/ha, 20 DAT): 10% | pest or weed control at 600 g/ha (Abutilon theophrasti [5]; Abutilon theophrasti, pre-emergence, 480 h, 600 gai/ha, 20 DAT): 10% | pest or weed control at 600 g/ha (Euphorbia heterophylla [6]; Euphorbia heterophylla, pre-emergence, 480 h, 600 gai/ha, 20 DAT): 10% | pest or weed control at 1200 g/ha (Euphorbia heterophylla [6]; Euphorbia heterophylla, pre-emergence, 480 h, 1200 gai/ha, 20 DAT): 10% | pest or weed control at 1200 g/ha (Alopecurus myosuroides; Alopecurus myosuroides, pre-emergence, 480 h, 1200 gai/ha, 20 DAT): 0% | pest or weed control at 600 g/ha (Setaria viridis; Setaria viridis, pre-emergence, 480 h, 600 gai/ha, 20 DAT): 0% | pest or weed control at 600 g/ha (Ipomoea hederacea; 600 gai/ha): 10% | pest or weed control at 1200 g/ha (Ipomoea hederacea; 1200 gai/ha): 0% | pest or weed control at 600 g/ha (Ambrosia artemisiifolia; 600 gai/ha): 10% | pest or weed control at 1200 g/ha (Ambrosia artemisiifolia; 1200 gai/ha): 25% | pest or weed control at 600 g/ha (Commelina benghalensis; Commelina benghalensis, pre-emergence, 480 h, 600 gai/ha, 20 DAT): 0% | pest or weed control at 600 g/ha (Lolium multiflorum; Lolium multiflorum, pre-emergence, 480 h, 600 gai/ha, 20 DAT): 0% | pest or weed control at 1200 g/ha (Lolium multiflorum; Lolium multiflorum, pre-emergence, 480 h, 1200 gai/ha, 20 DAT): 10% | pest or weed control at 600 g/ha (Geranium pusillum; Geranium pusillum, post-emergence, 480 h, 600 gai/ha, 20 DAT): 10% | pest or weed control at 600 g/ha (Amaranthus retroflexus [8]; Amaranthus retroflexus, post-emergence, 480 h, 600 gai/ha, 20 DAT): 25% | pest or weed control at 1200 g/ha (Amaranthus retroflexus [8]; Amaranthus retroflexus, post-emergence, 480 h, 1200 gai/ha, 20 DAT): 45%
